From PubChem BioAssay AID1259407 (Chemical Carcinogenesis Research Information System (CCRIS), 2018)
Active and inactive are the calls of the source. How the calls were made is not given here.

Tested on: CCRIS mutagenicity, Ames/micronucleus/aberration tests
Assay: CCRIS mutagenicity studies
[1] = Test System: AMES SALMONELLA TYPHIMURIUM, Strain/Indicator: TA102, Metabolic Activation: NONE, Method: STANDARD PLATE
[2] = Test System: AMES SALMONELLA TYPHIMURIUM, Strain/Indicator: TA98, Metabolic Activation: NONE, Method: STANDARD PLATE
[3] = Test System: AMES SALMONELLA TYPHIMURIUM, Strain/Indicator: TA100, Metabolic Activation: NONE, Method: STANDARD PLATE
[4] = Test System: AMES SALMONELLA TYPHIMURIUM, Strain/Indicator: TA98, Metabolic Activation: RAT, LIVER, S-9, AROCLOR 1254, Method: STANDARD PLATE
[5] = Test System: AMES SALMONELLA TYPHIMURIUM, Strain/Indicator: TA100, Metabolic Activation: RAT, LIVER, S-9, AROCLOR 1254, Method: STANDARD PLATE
[6] = Test System: AMES SALMONELLA TYPHIMURIUM, Strain/Indicator: TA98, Metabolic Activation: NONE, Method: PREINCUBATION
[7] = Test System: AMES SALMONELLA TYPHIMURIUM, Strain/Indicator: TA1537, Metabolic Activation: NONE, Method: STANDARD PLATE
[8] = Test System: AMES SALMONELLA TYPHIMURIUM, Strain/Indicator: TA100, Metabolic Activation: NONE, Method: PREINCUBATION
[9] = Test System: AMES SALMONELLA TYPHIMURIUM, Strain/Indicator: TA1535, Metabolic Activation: NONE, Method: PREINCUBATION
[10] = Test System: AMES SALMONELLA TYPHIMURIUM, Strain/Indicator: TA1537, Metabolic Activation: NONE, Method: PREINCUBATION

SMILES: CCn1cc(C(=O)O)c(=O)c2cc(F)c(N3CCN(C)CC3)cc21
- mutagenic call [1]: active; positive
- mutagenic call (Test System: CHINESE HAMSTER V-79, Strain/Indicator: V-79 (HPRT)/6-THIOGUANINE, Metabolic Activation: NONE): inactive; negative

SMILES: Cc1c(C(=O)O)c(O)cc2c1C(=O)c1c(O)c([C@@H]3O[C@@H](CO)[C@H](O)[C@@H](O)[C@H]3O)c(O)c(O)c1C2=O
- mutagenic call (Test System: AMES SALMONELLA TYPHIMURIUM, Strain/Indicator: TA100, Method: PREINCUBATION): active; positive

SMILES: COc1cccc2c1C(=O)c1c(O)c3c(c(O)c1C2=O)C[C@@](O)(C(=O)CO)C[C@@H]3O[C@H]1C[C@H](N)[C@@H](O)[C@H](C)O1
- mutagenic call (Test System: AMES SALMONELLA TYPHIMURIUM, Strain/Indicator: TA97, Metabolic Activation: NONE, Method: STANDARD PLATE): inactive; negative
- mutagenic call [2]: active; positive
- mutagenic call [3]: inactive; negative
- mutagenic call [1]: active; positive
- mutagenic call (Test System: AMES SALMONELLA TYPHIMURIUM, Strain/Indicator: TA104, Metabolic Activation: NONE, Method: STANDARD PLATE): inactive; negative
- mutagenic call (Test System: AMES SALMONELLA TYPHIMURIUM, Strain/Indicator: TA2637, Metabolic Activation: NONE, Method: STANDARD PLATE): active; positive

SMILES: NC(=O)C1(C(N)=O)OC1C(=O)c1ccccc1 (centres undefined)
- mutagenic call (Test System: AMES SALMONELLA TYPHIMURIUM, Strain/Indicator: TA98, Metabolic Activation: NONE, Method: DISK ASSAY): inactive; negative
- mutagenic call [2]: inactive; negative
- mutagenic call (Test System: AMES SALMONELLA TYPHIMURIUM, Strain/Indicator: TA98, Metabolic Activation: RAT, LIVER, S-9, AROCLOR 1254, Method: DISK ASSAY): inactive; negative
- mutagenic call [4]: active; positive
- mutagenic call [3]: inactive; negative
- mutagenic call [5]: inactive; negative

SMILES: COc1ccc(-c2oc3ccccc3c(=O)c2N)cc1N
- mutagenic call (Test System: AMES SALMONELLA TYPHIMURIUM, Strain/Indicator: TA100, Metabolic Activation: RAT LIVER S-9, AROCLOR 1254, Method: STANDARD PLATE): active; positive
- mutagenic call (Test System: AMES SALMONELLA TYPHIMURIUM, Strain/Indicator: YG1042, Metabolic Activation: RAT LIVER S-9, AROCLOR 1254, Method: STANDARD PLATE): active; positive

SMILES: O=[N+]([O-])c1cccc2nc3c([N+](=O)[O-])cccc3nc12
- mutagenic call (Test System: AMES SALMONELLA TYPHIMURIUM, Strain/Indicator: TA98(NR), Metabolic Activation: NONE, Method: PREINCUBATION): inactive; negative
- mutagenic call [6]: inactive; negative

SMILES: Cc1ccc(NS(=O)(=O)c2cccc3cccnc23)cc1
- mutagenic call [2]: inactive; negative
- mutagenic call [4]: inactive; negative
- mutagenic call [3]: inactive; negative
- mutagenic call [5]: inactive; negative
- mutagenic call (Test System: AMES SALMONELLA TYPHIMURIUM, Strain/Indicator: TA1535, Metabolic Activation: NONE, Method: STANDARD PLATE): inactive; negative
- mutagenic call (Test System: AMES SALMONELLA TYPHIMURIUM, Strain/Indicator: TA1535, Metabolic Activation: RAT, LIVER, S-9, AROCLOR 1254, Method: STANDARD PLATE): inactive; negative
- mutagenic call [7]: inactive; negative
- mutagenic call (Test System: AMES SALMONELLA TYPHIMURIUM, Strain/Indicator: TA1537, Metabolic Activation: RAT, LIVER, S-9, AROCLOR 1254, Method: STANDARD PLATE): inactive; negative

SMILES: O=[N+]([O-])c1cccc2c1[nH]c1ccccc12
- mutagenic call [2]: active; positive
- mutagenic call [4]: active; positive
- mutagenic call (Test System: AMES SALMONELLA TYPHIMURIUM, Strain/Indicator: TA98, Metabolic Activation: RAT, LIVER, S-9, PHENOBARBITAL, Method: STANDARD PLATE): active; positive
- mutagenic call [3]: inactive; negative
- mutagenic call (Test System: AMES SALMONELLA TYPHIMURIUM, Strain/Indicator: TA100, Metabolic Activation: RAT, LIVER, S-9, PHENOBARBITAL, Method: STANDARD PLATE): inactive; negative
- mutagenic call (Test System: AMES SALMONELLA TYPHIMURIUM, Strain/Indicator: TA1538, Metabolic Activation: NONE, Method: STANDARD PLATE): active; positive
- mutagenic call (Test System: AMES SALMONELLA TYPHIMURIUM, Strain/Indicator: TA1538, Metabolic Activation: RAT, LIVER, S-9, PHENOBARBITAL, Method: STANDARD PLATE): active; positive
- mutagenic call (Test System: AMES SALMONELLA TYPHIMURIUM, Strain/Indicator: TA1977, Metabolic Activation: NONE, Method: STANDARD PLATE): inactive; negative
- mutagenic call (Test System: AMES SALMONELLA TYPHIMURIUM, Strain/Indicator: TA1977, Metabolic Activation: RAT, LIVER, S-9, PHENOBARBITAL, Method: STANDARD PLATE): inactive; negative

SMILES: CNCCO
- mutagenic call (Test System: AMES SALMONELLA TYPHIMURIUM, Strain/Indicator: TA98, Metabolic Activation: HAMSTER, LIVER, S-9, AROCLOR 1254 (10%), Method: PREINCUBATION): inactive; negative
- mutagenic call [6]: inactive; negative
- mutagenic call (Test System: AMES SALMONELLA TYPHIMURIUM, Strain/Indicator: TA98, Metabolic Activation: RAT, LIVER, S-9, AROCLOR 1254 (10%), Method: PREINCUBATION): inactive; negative
- mutagenic call (Test System: AMES SALMONELLA TYPHIMURIUM, Strain/Indicator: TA100, Metabolic Activation: HAMSTER, LIVER, S-9, AROCLOR 1254 (10%), Method: PREINCUBATION): inactive; negative
- mutagenic call [8]: inactive; negative
- mutagenic call (Test System: AMES SALMONELLA TYPHIMURIUM, Strain/Indicator: TA100, Metabolic Activation: RAT, LIVER, S-9, AROCLOR 1254 (10%), Method: PREINCUBATION): inactive; negative
- mutagenic call (Test System: AMES SALMONELLA TYPHIMURIUM, Strain/Indicator: TA1535, Metabolic Activation: HAMSTER, LIVER, S-9, AROCLOR 1254 (10%), Method: PREINCUBATION): inactive; negative
- mutagenic call [9]: inactive; negative
- mutagenic call (Test System: AMES SALMONELLA TYPHIMURIUM, Strain/Indicator: TA1535, Metabolic Activation: RAT, LIVER, S-9, AROCLOR 1254 (10%), Method: PREINCUBATION): inactive; negative
- mutagenic call (Test System: AMES SALMONELLA TYPHIMURIUM, Strain/Indicator: TA1537, Metabolic Activation: HAMSTER, LIVER, S-9, AROCLOR 1254 (10%), Method: PREINCUBATION): inactive; negative
- mutagenic call [10]: inactive; negative
- mutagenic call (Test System: AMES SALMONELLA TYPHIMURIUM, Strain/Indicator: TA1537, Metabolic Activation: RAT, LIVER, S-9, AROCLOR 1254 (10%), Method: PREINCUBATION): inactive; negative

SMILES: COC(=O)CC(=O)OC
- mutagenic call [6]: inactive; negative
- mutagenic call (Test System: AMES SALMONELLA TYPHIMURIUM, Strain/Indicator: TA98, Metabolic Activation: RAT LIVER S-9, PHENOBARBITAL AND BETA-NAPHTHOFLAVONE, Method: PREINCUBATION): inactive; negative
- mutagenic call [8]: inactive; negative
- mutagenic call (Test System: AMES SALMONELLA TYPHIMURIUM, Strain/Indicator: TA100, Metabolic Activation: RAT LIVER S-9, PHENOBARBITAL AND BETA-NAPHTHOFLAVONE, Method: PREINCUBATION): inactive; negative
- mutagenic call [9]: inactive; negative
- mutagenic call (Test System: AMES SALMONELLA TYPHIMURIUM, Strain/Indicator: TA1535, Metabolic Activation: RAT LIVER S-9, PHENOBARBITAL AND BETA-NAPHTHOFLAVONE, Method: PREINCUBATION): inactive; negative
- mutagenic call [10]: inactive; negative
- mutagenic call (Test System: AMES SALMONELLA TYPHIMURIUM, Strain/Indicator: TA1537, Metabolic Activation: RAT LIVER S-9, PHENOBARBITAL AND BETA-NAPHTHOFLAVONE, Method: PREINCUBATION): inactive; negative
- mutagenic call (Test System: E.COLI, Strain/Indicator: WP2UVRA/PKM101, Metabolic Activation: NONE, Method: PREINCUBATION): inactive; negative
- mutagenic call (Test System: E.COLI, Strain/Indicator: WP2UVRA/PKM101, Metabolic Activation: RAT LIVER S-9, PHENOBARBITAL AND BETA-NAPHTHOFLAVONE, Method: PREINCUBATION): inactive; negative

SMILES: CN(C)CCNC(=O)c1cccc2cc3ccccc3nc12
- mutagenic call [7]: active; positive
